IC50 and Ratio data for 35 molecules are collected here from patent publication US20110105436A1, “HETEROARYL COMPOUNDS, COMPOSITIONS, AND METHODS OF USE IN CANCER TREATMENT” (AUCKLAND UNISERVICES LIMITED, priority 2008, published 2011).

In one assay the test system is RCC4 cells. Put plainly: XTT assay in VHL-deficient RCC4 cells. The class given is cell-based. As to conditions: Homo sapiens, 96 h, XTT assay, VHL-deficient RCC4 cells, four days. The method, then:
(§1) Cell Viability and XTT assays. For cell viability, 100,000 cells were plated in a 12-well plate. The following day, 1.25 μM STF-62247 was added in the presence or absence of 1 mM 3-MA for 24 hours at 37° C. Cells were trypsinized and counted by trypan blue exclusion. For XTT assays, 5000 RCC4 with and without VHL cells or 2,500 SN12C with and without VHL shRNA cells were plated in 96-well plates. The following day, vehicle (DMSO), STF-62247 or each of 19 analogs were added to media by serial dilution. Four days later, the media was aspirated and XTT solution containing 0.3 mg/ml of XTT (Sigma Chemical Co) in Phenol Red-free media, 20% FCS and 2.65 mg/ml N-methyl dibenzopyrazine methyl sulfate (PMS) was added to the cells and incubated at 37° C. for 1-2 hours. Metabolism of XTT was quantified by measuring the absorbance at 450 nm on a plate reader.
A general note: Tetrazolium assays rely on reduction of a dye to a coloured formazan, in cell work by metabolically active cells.

The subject of another assay is RCC4/VHL cells. The experiment in a line: XTT assay, RCC4/VHL versus RCC4 cells (selectivity ratio). The note with it: selectivity ratio, IC50 in RCC4/VHL cells/IC50 in RCC4 cells. The class given is cell-based. The method, then: as §1
A. RCC4 and RCC4/VHL were treated with 1.25 μM of each 19 analogs for 20 hours and the presence of vacuoles was examined under light microscopy. B. Western blot for LC3 after treatment with each compound. Tubulin was used as loading control. Ratio is the relative from the IC50 in RCC4/VHL cells/IC50 in RCC4 cells. C. Acidic vesicle organelles (AVO) measured by FACS analysis in cells treated with 1.25 μM of STF-62247 or with compounds 21, 15, 25, 47, and 53 and stained with acridine orange.

What is called IC50 is the point on the concentration scale where inhibition reaches its midpoint.

In the assay with RCC4 cells (Table 1), `OCCc1ccc(Nc2nc(-c3ccncc3)cs2)cc1` [Compound 23, 2-(4-{[4-(4-Pyridinyl)-1,3-thiazol-2-yl]amino}phenyl)ethanol] returned an IC50 of 5 µM. Moreover, in the assay with RCC4/VHL cells (Table 1), the Ratio stood at 16.
For `OCc1sc(Nc2ccccc2)nc1-c1ccncc1` [Compound 73, [2-(Phenylamino)-4-(4-pyridinyl)-1,3-thiazol-5-yl]methanol] the same measures were 30 µM and over 1.3.
`CCN(CC)Cc1sc(Nc2cccc(C)c2)nc1-c1ccncc1` [Compound 84, 5-[(Diethylamino)methyl]-N-(3-methylphenyl)-4-(4-pyridinyl)-1,3-thiazol-2-amine]: the midpoint of inhibition in the assay on RCC4 cells (Table 1), the IC50, lay at 13 µM. In addition, the Ratio in the assay on RCC4/VHL cells (Table 1) was 1.4.
With `CN(C)CCOc1ccc(Nc2nc(-c3ccncc3)cs2)cc1` [Compound 29, N-{4-[2-(Dimethylamino)ethoxy]phenyl}-4-(4-pyridinyl)-1,3-thiazol-2-amine], the IC50 with RCC4 cells (Table 1) is 60 µM. In the assay with RCC4/VHL cells (Table 1), the Ratio was determined as 1.3.
`Oc1ccc(Nc2nc(-c3ccccn3)cs2)cc1` [Compound 69, 4-{[4-(2-Pyridinyl)-1,3-thiazol-2-yl]amino}phenol]: the IC50 in the assay with RCC4 cells (Table 1) amounted to 36 µM. For the same molecule, in the assay on RCC4/VHL cells (Table 1), the Ratio came out at 0.7.
For the molecule `COc1ccc(Nc2nc(-c3ccncc3)cs2)cc1OC` [Compound 55, N-(3,4-Dimethoxyphenyl)-4-(4-pyridinyl)-1,3-thiazol-2-amine], inhibition with RCC4 cells (Table 1) was half-maximal at 24 µM (IC50). In addition, the Ratio in the assay with RCC4/VHL cells (Table 1) was determined as 1.9.
`Cc1sc(Nc2ccc3c(c2)CCC3)nc1-c1ccncc1` [Compound 72, N-(2,3-Dihydro-1H-inden-5-yl)-5-methyl-4-(4-pyridinyl)-1,3-thiazol-2-amine]: the IC50 in the assay with RCC4 cells (Table 1) came to 12 µM. Also, the Ratio in the assay on RCC4/VHL cells (Table 1) stood at 1.5.
For `Cc1cccc(Nc2nc(-c3ccncc3)c(CN(C)C)s2)c1` [Compound 83, 5-[(Dimethylamino)methyl]-N-(3-methylphenyl)-4-(4-pyridinyl)-1,3-thiazol-2-amine] the same measures were 16 µM and 2.3.
In the case of `Oc1ccc(Nc2nc(-c3cccnc3)cs2)cc1` [Compound 66, 4-{[4-(3-Pyridinyl)-1,3-thiazol-2-yl]amino}phenol], the IC50 in the assay on RCC4 cells (Table 1) was over 40 µM.
As for `Cc1cccc(Nc2nc(-c3ccncc3CCCO)cs2)c1` [Compound 187, 3-(4-{2-[(3-Methylphenyl)amino]-1,3-thiazol-4-yl}-3-pyridinyl)-1-propanol], half-maximal inhibition in the assay with RCC4 cells (Table 2) (IC50) required 6.8 µM. Also, the Ratio with RCC4/VHL cells (Table 2) is over 5.9.
Consider `Cc1cccc(Nc2nc(-c3cc(-c4ccccc4)nc4ccccc34)cs2)c1` [Compound 194, N-(3-Methylphenyl)-4-(2-phenyl-4-quinolinyl)-1,3-thiazol-2-amine], for which the half-maximal inhibitory concentration (IC50) with RCC4 cells (Table 2) worked out at 25.4 µM. The Ratio with RCC4/VHL cells (Table 2) is over 1.6.
In turn, `OCc1sc(Nc2ccc3c(c2)CCC3)nc1-c1ccncc1` [Compound 76, [2-(2,3-Dihydro-1H-inden-5-ylamino)-4-(4-pyridinyl)-1,3-thiazol-5-yl]methanol] gave an IC50 in the assay with RCC4 cells (Table 1) of 6.8 µM. Besides, the Ratio in the assay on RCC4/VHL cells (Table 1) is listed as 1.4.
Molecule `CCc1cc(-c2csc(Nc3cccc(C)c3)n2)ccn1` [Compound 160, 4-(2-Ethyl-4-pyridinyl)-N-(3-methylphenyl)-1,3-thiazol-2-amine] registered a half-inhibitory concentration (IC50) with RCC4 cells (Table 2) of 6.4 µM. In addition, the Ratio with RCC4/VHL cells (Table 2) is over 6.3.
As to `Cc1cccc(Nc2nc(-c3ccncc3)c(C(=O)N(C)C)s2)c1` [Compound 92, N,N-Dimethyl-2-[(3-methylphenyl)amino]-4-(4-pyridinyl)-1,3-thiazole-5-carboxamide], the midpoint of inhibition in the assay on RCC4 cells (Table 1), the IC50, lay at 16 µM. Moreover, in the assay on RCC4/VHL cells (Table 1), the Ratio is over 2.5.
In turn, `Cc1cccc(Nc2nc(-c3ccncc3)c(CCCO)s2)c1` [Compound 81, 3-[2-[(3-Methylphenyl)amino]-4-(4-pyridinyl)-1,3-thiazol-5-yl]-1-propanol] showed an IC50 in the assay on RCC4 cells (Table 1) of 3.6 µM. Moreover, in the assay with RCC4/VHL cells (Table 1), the Ratio is 3.7.
`COc1cc(-c2csc(Nc3cccc(C)c3)n2)ccn1` [Compound 141, N-{4-[2-(Methyloxy)-4-pyridinyl]-1,3-thiazol-2-yl}-N-(3-methylphenyl)amine] gave a half-maximal inhibitory concentration (IC50) in the assay on RCC4 cells (Table 2) of 28.7 µM. The Ratio in the assay on RCC4/VHL cells (Table 2) was 1.2.
In the assay on RCC4 cells (Table 1), `Cc1cccc(N(C)c2nc(-c3ccncc3)cs2)c1` [Compound 95, N-Methyl-N-(3-methylphenyl)-4-(4-pyridinyl)-1,3-thiazol-2-amine] registered an IC50 of 28 µM. Besides, the Ratio with RCC4/VHL cells (Table 1) was found to be 0.6.
Consider `Cc1cccc(Nc2nc(-c3ccncc3C#CCO)cs2)c1` [Compound 186, 3-(4-{2-[(3-Methylphenyl)amino]-1,3-thiazol-4-yl}-3-pyridinyl)-2-propyn-1-ol], for which the IC50 with RCC4 cells (Table 2) stood at 0.24 µM. The Ratio with RCC4/VHL cells (Table 2) came to 11.9.
In the case of `Clc1cccc(Nc2nc(-c3ccncc3)cs2)c1` [Compound 17, N-(3-Chlorophenyl)-4-(4-pyridinyl)-1,3-thiazol-2-amine], it took 3 µM to reach half-maximal inhibition in the assay with RCC4 cells (Table 1) (IC50). The Ratio with RCC4/VHL cells (Table 1) worked out at 5.
On the same counts, the results for `c1cc(-c2csc(Nc3ccc4c(c3)CCC4)n2)ccn1` [Compound 47, N-(2,3-Dihydro-1H-inden-5-yl)-4-(4-pyridinyl)-1,3-thiazol-2-amine] are 2 µM and 10.
As to `Cc1cccc(Nc2nc(-c3ccncc3Br)cs2)c1` [Compound 178, 4-(3-Bromo-4-pyridinyl)-N-(3-methylphenyl)-1,3-thiazol-2-amine], in the assay on RCC4 cells (Table 2), the IC50 is 3.9 µM. In the assay on RCC4/VHL cells (Table 2), the Ratio is over 10.
The molecule `CCc1cccc(Nc2nc(-c3ccncc3)cs2)c1` [Compound 7, N-(3-Ethylphenyl)-4-(4-pyridinyl)-1,3-thiazol-2-amine] returned an IC50 in the assay with RCC4 cells (Table 1) of 2.5 µM. In addition, the Ratio in the assay with RCC4/VHL cells (Table 1) is listed as 9.6.
For the molecule `CC(C)c1cccc(Nc2nc(-c3ccncc3)cs2)c1` [Compound 9, N-(3-Isopropylphenyl)-4-(4-pyridinyl)-1,3-thiazol-2-amine], the IC50 in the assay on RCC4 cells (Table 1) turned out to be 17 µM. Moreover, the Ratio in the assay on RCC4/VHL cells (Table 1) came out at 1.4.
On to `Cc1cccc(Nc2nc(-c3ccnc(F)c3)cs2)c1` [Compound 149, 4-(2-Fluoro-4-pyridinyl)-N-(3-methylphenyl)-1,3-thiazol-2-amine], for which the IC50 in the assay with RCC4 cells (Table 2) amounted to 4.5 µM. In addition, in the assay with RCC4/VHL cells (Table 2), the Ratio is recorded as over 8.9.
The molecule `Cc1ccc(Nc2nc(-c3ccncc3)c(CO)s2)cc1` [Compound 75, [2-[(4-Methylphenyl)amino]-4-(4-pyridinyl)-1,3-thiazol-5-yl]methanol] displayed an IC50 in the assay on RCC4 cells (Table 1) of 14 µM. For the same molecule, the Ratio with RCC4/VHL cells (Table 1) amounted to 1.2.
In the assay on RCC4 cells (Table 2), `CCc1cnccc1-c1csc(Nc2cccc(C)c2)n1` [Compound 185, 4-(3-Ethyl-4-pyridinyl)-N-(3-methylphenyl)-1,3-thiazol-2-amine] had an IC50 of 6.2 µM. In addition, in the assay with RCC4/VHL cells (Table 2), the Ratio is 2.8.
In turn, `Clc1ccc(Nc2nc(-c3ccncc3)cs2)cc1` [Compound 31, N-(4-Chlorophenyl)-4-(4-pyridinyl)-1,3-thiazol-2-amine] yielded an IC50 with RCC4 cells (Table 1) of 38 µM. Besides, in the assay with RCC4/VHL cells (Table 1), the Ratio is recorded as over 2.
As for `CC(=O)c1cccc(Nc2nc(-c3ccncc3)cs2)c1` [Compound 125, 1-(3-{[4-(4-Pyridinyl)-1,3-thiazol-2-yl]amino}phenyl)ethanone], the IC50 with RCC4 cells (Table 1) was determined as 13 µM. The Ratio with RCC4/VHL cells (Table 1) is over 3.1.
As for `Cc1cccc(Nc2nc(-c3cc(Cl)nc(Cl)c3)cs2)c1` [Compound 158, N-[4-(2,6-Dichloro-4-pyridinyl)-1,3-thiazol-2-yl]-N-(3-methylphenyl)amine], the IC50 with RCC4 cells (Table 2) worked out at 15 µM. The Ratio in the assay on RCC4/VHL cells (Table 2) was 2.3.
On the same counts, the results for `Cc1cccc(Nc2nc(-c3ccnc(Br)c3)cs2)c1` [Compound 154, 4-(2-Bromo-4-pyridinyl)-N-(3-methylphenyl)-1,3-thiazol-2-amine] are 3.9 µM and over 10.
The molecule `Cc1cccc(Nc2nc(-c3ccncc3)c(CN3CCOCC3)s2)c1` [Compound 86, N-(3-Methylphenyl)-5-(4-morpholinylmethyl)-4-(4-pyridinyl)-1,3-thiazol-2-amine] showed an IC50 in the assay with RCC4 cells (Table 1) of 2.5 µM. Moreover, the Ratio in the assay with RCC4/VHL cells (Table 1) worked out at 4.8.
As to `COC(=O)/C=C/c1sc(Nc2cccc(C)c2)nc1-c1ccncc1` [Compound 78, Methyl (2E)-3-[2-[(3-Methylphenyl)amino]-4-(4-pyridinyl)-1,3-thiazol-5-yl]-2-propenoate], the IC50 in the assay with RCC4 cells (Table 1) came out at 2.5 µM. Moreover, in the assay on RCC4/VHL cells (Table 1), the Ratio is 2.8.
For `Cc1cccc(Nc2nc(-c3ccnc4ccccc34)cs2)c1` [Compound 192, N-(3-Methylphenyl)-4-(4-quinolinyl)-1,3-thiazol-2-amine], the 50% inhibitory concentration (IC50) with RCC4 cells (Table 2) is 12.3 µM. For the same molecule, in the assay on RCC4/VHL cells (Table 2), the Ratio is 1.6.
For `FC(F)(F)c1ccc(Nc2nc(-c3ccncc3)cs2)cc1` [Compound 133, 4-(4-Pyridinyl)-N-[4-(trifluoromethyl)phenyl]-1,3-thiazol-2-amine], the IC50 with RCC4 cells (Table 1) was over 40 µM.
Turning to `Cc1cccc(Nc2nc(-c3cccnc3)cs2)c1` [Compound 65, N-(3-Methylphenyl)-4-(3-pyridinyl)-1,3-thiazol-2-amine], the IC50 in the assay on RCC4 cells (Table 1) is over 40 µM.
